The results in this text go back to patent US20220378747A1, “TOPICAL COMPOSITION FOR TREATING SKIN WOUNDS” (priority 2021, published 2022).

Holding throughout (type): physicochemical
The nature of data set [1]: pH of Zinc Solutions. From the text:
Other minerals which may be administered in the subject form include calcium, iron, magnesium, manganese and the like.

Data set [2] in a line: 0.1M Zinc Gluconate and 0.1M Amino Acid Solutions: pH and precipitation on adjusting pH to 7.0. To be noted: for Observations: 0.1M zinc gluconate and 0.1M amino acid, pH adjusted to 7.0 with NaOH; for pH: 0.1M zinc gluconate and 0.1M amino acid solution, before adjustment. The text has this: There are seven standard amino acids with uncharged polar R groups which can hydrogen-bond with water. […] The basic amino acids, in which the R groups have a net positive charge at pH 7.0, all have six carbon atoms. […] Histidine is the only amino acid having buffering capacity near pH 7.0 with a pK′ of the R group near 7.0. All of the basic amino acids as shown in the following table are suitable for use in the present invention: […]

Data set [3] is described as follows: pH of 2M amino acid and 1M zinc gluconate solution in water (Example 11). The following applies: 2M amino acid and 1M zinc gluconate dissolved in water, before neutralization. Here is the method: A formulation in powder form containing zinc and lysine which when dissolved in water forms a neutral solution was prepared as follows: Two M lysine and 1M zinc gluconate was dissolved in water to form a solution having a pH 7.4 and was neutralized to pH 7 with HCl. After the zinc and amino solution was neutralized, it was frozen immediately in liquid nitrogen. The frozen solution was then lyophilized for 24 hours to remove water.

On to `CC(=O)[O-].CC(=O)[O-].[Zn+2]` [Zinc acetate], for which the pH is on record as 6.7 in data set [1] (0.1M solution) and 6.6 in data set [1] (0.2M solution).

As to Zinc gluconate, in data set [2] (zinc salt alone, without amino acid), the “neutralization with sodium hydroxide” value is “cannot be neutralized with sodium hydroxide without precipitating the mixture”. For the same molecule, the pH in data set [1] (0.1M solution) stood at 5.85; in data set [1] (0.2M solution), 5.65.

Regarding `N[C@@H](Cc1c[nH]c2ccccc12)C(=O)O` [Tryptophan], the Observations result in data set [2] is listed as “Not soluble”.

On to `[Cl-].[Cl-].[Zn+2]` [Zinc chloride], for which the figures for the pH in data set [1] (0.1M solution) and in data set [1] (0.2M solution) were 6.4 and 6.2, respectively.

For the molecule `CC(C)[C@H](N)C(=O)O` [Valine], in data set [2], the “acidity of zinc gluconate neutralized by adding the amino acid and adjusting the pH to 7.0” value (“acidity of zinc gluconate neutralized” for short) was “can be neutralized”; the pH is 5.1.

As for `CC[C@H](C)[C@H](N)C(=O)O` [Isoleucine], in data set [2], the “acidity of zinc gluconate neutralized” value is “can be neutralized”; the pH is reported as 5.1.

For `N[C@@H](Cc1c[nH]cn1)C(=O)O` [Histidine], the “acidity of zinc gluconate neutralized” value in data set [2] is reported as “can be neutralized”. For the same molecule, in data set [3], the pH of solution is reported as 5.5.

For `N[C@@H](CO)C(=O)O` [Serine], in data set [2], the “acidity of zinc gluconate neutralized” value is given as “can be neutralized”; the Observations entry was “does not precipitate”.

Take `NCCCC[C@H](N)C(=O)O` [Lysine]: in data set [2], the “acidity of zinc gluconate neutralized” value is recorded as “can be neutralized”; the pH is 7.4. The molecule further gave a pH of solution in data set [3] of 7.4.

Regarding `N[C@@H](Cc1ccccc1)C(=O)O` [Phenylalanine], in data set [2], the pH worked out at 4.9 and the Observations entry is “precipitates”.

Consider `O=S(=O)([O-])[O-].[Zn+2]` [Zinc sulfate], for which the pH in data set [1] (0.1M solution) amounted to 5.7; in data set [1] (0.2M solution), 5.45.

As for `NC(=O)C[C@H](N)C(=O)O` [Asparagine], in data set [2], the “acidity of zinc gluconate neutralized” value was “can be neutralized”; the pH is 4.8.

`NC(=O)CC[C@H](N)C(=O)O` [Glutamine]: in data set [2], the “acidity of zinc gluconate neutralized” value is on record as “can be neutralized”; the pH is recorded as 5.0.

With `N[C@@H](CS)C(=O)O` [Cysteine], in data set [2], the “acidity of zinc gluconate neutralized” value is “cannot be made”; the Observations result was “precipitates”.

In the case of `CC(C)C[C@H](N)C(=O)O` [Leucine], in data set [2], the pH is 5.0 and the Observations result is “pH adjusted to 7.0 with NaOH precipitates”.

In the case of `CSCC[C@H](N)C(=O)O` [Methionine], the Observations entry in data set [2] is recorded as “pH adjusted to 7.0 with NaOH precipitates”.

With `C[C@H](N)C(=O)O` [Alanine], in data set [2], the “acidity of zinc gluconate neutralized” value is reported as “can be neutralized”; the pH worked out at 5.1.

Regarding `C[C@@H](O)[C@H](N)C(=O)O` [Threonine], in data set [2], the “acidity of zinc gluconate neutralized” value is “can be neutralized”; the Observations result is recorded as “does not precipitate”.
